Patent US12344595B2, “2-amino-n-phenyl-nicotinamides as NAV1.8 inhibitors” (Merck Sharp & Dohme LLC, priority 2018, dated 2025)

These molecules were tested against human Nav1.8 (Homo sapiens (Human), UniProt Q9Y5Y9) (assay: Nav1.8 Qube automated patch-clamp assay). Conditions: Nav1.8 Qube Assay; human Nav1.8 channels stably expressed in HEK 293 cells.
Assay type: cell-based
Summary of the method: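 IC50 values came from Hill fitting of peak currents: pulse 1 for resting-state and pulse 10 for inactivated-state inhibition. Currents were recorded in stably transfected HEK293 cells at room temperature, with ten 20 ms steps to 10 mV at 1 Hz from a −90 mV hold. External solution was 150 mM NaCl-based; internal solution was CsF/CsCl.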

Chain of human Nav1.8 (Q9Y5Y9 whole entry): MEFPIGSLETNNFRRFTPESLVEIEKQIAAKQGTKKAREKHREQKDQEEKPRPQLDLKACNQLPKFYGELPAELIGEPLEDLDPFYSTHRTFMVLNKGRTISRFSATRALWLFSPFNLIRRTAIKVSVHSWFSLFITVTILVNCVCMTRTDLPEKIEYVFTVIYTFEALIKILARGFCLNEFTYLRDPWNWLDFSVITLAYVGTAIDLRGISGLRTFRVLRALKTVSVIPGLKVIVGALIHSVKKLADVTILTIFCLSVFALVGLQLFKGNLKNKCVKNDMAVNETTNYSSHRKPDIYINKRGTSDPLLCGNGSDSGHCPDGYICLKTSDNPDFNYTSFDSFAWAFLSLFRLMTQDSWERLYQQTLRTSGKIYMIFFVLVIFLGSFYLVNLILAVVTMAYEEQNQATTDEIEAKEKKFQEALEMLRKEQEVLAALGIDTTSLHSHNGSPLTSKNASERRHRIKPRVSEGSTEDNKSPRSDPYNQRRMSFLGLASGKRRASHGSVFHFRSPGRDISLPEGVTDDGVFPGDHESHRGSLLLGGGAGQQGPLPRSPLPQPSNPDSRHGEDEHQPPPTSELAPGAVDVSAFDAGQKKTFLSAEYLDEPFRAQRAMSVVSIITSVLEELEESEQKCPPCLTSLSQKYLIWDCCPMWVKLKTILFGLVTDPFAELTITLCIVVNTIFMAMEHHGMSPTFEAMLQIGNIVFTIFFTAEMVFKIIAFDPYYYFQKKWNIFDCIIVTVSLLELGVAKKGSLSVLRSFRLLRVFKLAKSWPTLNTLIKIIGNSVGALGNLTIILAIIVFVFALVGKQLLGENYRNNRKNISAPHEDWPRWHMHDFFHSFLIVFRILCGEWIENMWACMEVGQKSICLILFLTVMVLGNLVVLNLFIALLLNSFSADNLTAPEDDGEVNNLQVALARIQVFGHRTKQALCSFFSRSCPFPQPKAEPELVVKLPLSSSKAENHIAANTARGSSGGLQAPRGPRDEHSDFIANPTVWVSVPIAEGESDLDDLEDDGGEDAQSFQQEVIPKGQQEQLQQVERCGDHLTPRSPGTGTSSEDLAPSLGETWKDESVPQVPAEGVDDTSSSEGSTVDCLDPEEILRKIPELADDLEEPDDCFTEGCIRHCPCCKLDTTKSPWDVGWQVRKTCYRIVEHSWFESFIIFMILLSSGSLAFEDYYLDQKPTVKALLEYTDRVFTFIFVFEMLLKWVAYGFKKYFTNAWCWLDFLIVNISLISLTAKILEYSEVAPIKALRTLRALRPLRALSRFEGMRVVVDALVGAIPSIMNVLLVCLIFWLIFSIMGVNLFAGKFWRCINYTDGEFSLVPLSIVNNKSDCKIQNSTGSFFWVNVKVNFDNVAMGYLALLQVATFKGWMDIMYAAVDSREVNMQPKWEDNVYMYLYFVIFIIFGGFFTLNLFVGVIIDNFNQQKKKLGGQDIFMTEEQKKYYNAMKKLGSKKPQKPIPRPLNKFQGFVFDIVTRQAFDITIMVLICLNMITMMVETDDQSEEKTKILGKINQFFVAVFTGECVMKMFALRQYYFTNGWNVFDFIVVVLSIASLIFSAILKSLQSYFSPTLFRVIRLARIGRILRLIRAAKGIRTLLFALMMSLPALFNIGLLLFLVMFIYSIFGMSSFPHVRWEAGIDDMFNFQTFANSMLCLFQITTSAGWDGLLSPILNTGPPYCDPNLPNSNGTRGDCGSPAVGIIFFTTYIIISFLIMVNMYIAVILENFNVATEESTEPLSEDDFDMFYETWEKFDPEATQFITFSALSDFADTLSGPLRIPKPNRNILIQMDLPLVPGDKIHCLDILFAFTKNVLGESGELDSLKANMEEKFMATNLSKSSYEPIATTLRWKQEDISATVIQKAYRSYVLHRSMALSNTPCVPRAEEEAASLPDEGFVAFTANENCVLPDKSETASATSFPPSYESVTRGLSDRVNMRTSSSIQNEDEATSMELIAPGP

How did the IC50 turn out when `N#Cc1cccc(NC(=O)c2cc(C(F)(F)F)cnc2N2CCCCCC2)c1` [Example 21, 2-(azepan-1-yl)-N-(3-cyanophenyl)-5-(trifluoromethyl)pyridine-3-carboxamide] was run?
Its IC50 is 254 nM.

`NS(=O)(=O)c1cccc(NC(=O)c2cc(C(F)(F)F)cnc2N2CCOCC2)c1` [Example 69, 2-morpholino-N-(3-sulfamoylphenyl)-5-(trifluoromethyl) pyridine-3-carboxamide] was tested. Which IC50 did it give?
Its IC50 is 4060 nM.

For `COc1nc(N2CCCCCC2)c(C(=O)Nc2cccc(S(N)(=O)=O)c2)cc1Br` [Example 156, 2-(azepan-1-yl)-5-bromo-6-methoxy-N-(3-sulfamoylphenyl)nicotinamide], which IC50 is on record?
Its IC50 is 19 nM.

How did the IC50 turn out when `Cc1nc(N2CCCC(F)(F)CC2)c(C(=O)Nc2cccc(C(N)=O)c2)cc1C#N` [Example 177, N-(3-carbamoylphenyl)-5-cyano-2-(4,4-difluoroazepan-1-yl)-6-methyl-pyridine-3-carboxamide] was run?
Its IC50 is 28 nM.

Which IC50 does the source give for `NS(=O)(=O)c1cccc(NC(=O)c2cc(C(F)(F)F)cnc2N2CCC(F)C2)c1` (stereo not shown) [Example 62, 2-(3-fluoropyrrolidin-1-yl)-N-(3-sulfamoyl-phenyl)-5-(trifluoro-methyl)pyridine-3-carboxamide] here?
The IC50 was 1830 nM.

How did the IC50 turn out when `NS(=O)(=O)c1cccc(NC(=O)c2cc(C(F)(F)F)cnc2N2CC3(CCOCC3)C2)c1` [Example 81, 2-(7-oxa-2-azaspiro[3.5]nonan-2-yl)-N-(3-sulfamoyl-phenyl)-5-(trifluoro-methyl)nicotinamide] was run?
Its IC50 is 4240 nM.

For `NS(=O)(=O)c1cccc(NC(=O)c2cc(C3CCCC3)cnc2N2CCCCC2)c1` [Example 154, 5-cyclopentyl-2-(piperidin-1-yl)-N-(3-sulfamoylphenyl)-nicotinamide], which IC50 is on record?
The IC50 was 1790 nM.

`NS(=O)(=O)c1cccc(NC(=O)c2cc(C(F)(F)F)cnc2N2CCC3(CCCO3)CC2)c1` [Example 72, 2-(1-oxa-8-azaspiro[4.5]decan-8-yl)-N-(3-sulfamoyl-phenyl)-5-(trifluoro-methyl)pyridine-3-carboxamide] was tested. Which IC50 did it give?
The IC50 was 6610 nM.

With `COC1CCCN(c2ncc(C(F)(F)F)cc2C(=O)Nc2cccc(S(N)(=O)=O)c2)CC1` (stereo not shown) [Example 49, 2-(4-methoxyazepan-1-yl)-N-(3-sulfamoyl-phenyl)-5-(trifluoro-methyl)pyridine-3-carboxamide] as the molecule, how does the IC50 read?
Its IC50 is 186 nM.

How did the IC50 turn out when `O=C(Nc1ccc2c(c1)S(=O)(=O)NC2)c1cc(C(F)(F)F)cnc1N1CCCCCC1` [Example 121, 2-(azepan-1-yl)-N-(1,1-dioxo-2,3-dihydro-1,2-benzothiazol-6-yl)-5-(trifluoromethyl)-pyridine-3-carboxamide] was run?
Its IC50 is 189 nM.
